Several values for one entry are separate records, joined by “and”; a condition that tells them apart may be missing. Equal entries are not always repeated.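 Dose response: 5 concentrations. Exposure: 48 h. Format: 96-well plates. Endpoint: linear interpolation; highest concentration if not reached. Here, GI50 denotes the concentration required for 50% inhibition of growth. TGI denotes the concentration required for complete inhibition of growth.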
Key:
Test in all cases: DTP human tumour cell line panel, 48 h
SF-268 CNS = tested on: SF-268 CNS
SNB-75 CNS = tested on: SNB-75 CNS
HL-60(TB) leukemia = tested on: HL-60(TB) leukemia
NCI-H226 lung = tested on: NCI-H226 lung
NCI-H522 lung = tested on: NCI-H522 lung
CAKI-1 renal = tested on: CAKI-1 renal
HOP-62 NSCLC = tested on: HOP-62 NSCLC
SNB-19 CNS = tested on: SNB-19 CNS
HCC-2998 colon = tested on: HCC-2998 colon
SK-MEL-2 melanoma = tested on: SK-MEL-2 melanoma

Structure (SMILES) | GI50 (SF-268 CNS) [µM] | TGI (SF-268 CNS) [µM] | GI50 (SNB-75 CNS) [µM] | TGI (SNB-75 CNS) [µM] | GI50 (HL-60(TB) leukemia) [µM] | TGI (HL-60(TB) leukemia) | GI50 (NCI-H226 lung) [µM] | TGI (NCI-H226 lung) | GI50 (NCI-H522 lung) | TGI (NCI-H522 lung) | GI50 (CAKI-1 renal) [µM] | TGI (CAKI-1 renal) [µM] | GI50 (HOP-62 NSCLC) [µM] | TGI (HOP-62 NSCLC) [µM] | GI50 (SNB-19 CNS) [µM] | TGI (SNB-19 CNS) [µM] | GI50 (HCC-2998 colon) [µM] | TGI (HCC-2998 colon) | GI50 (SK-MEL-2 melanoma) [µM] | TGI (SK-MEL-2 melanoma)
COc1ccc2c(c1)C(=O)c1c-2n(CCCN=[N+]=[N-])c(=O)c2cc(OC)c(OC)cc12 | 79.4 | > 100 | 14.8 | 35.3 | 13 | 25.7 µM | > 100 | > 100 µM | 43.8 µM | > 100 µM | 3.82 | 24.6 | 11.6 | 63.2 | 47 | > 100 | 13.7 | > 100 µM | > 100 | > 100 µM
COc1ccc(Nc2nc3ccc(C(F)(F)F)cc3nc2-c2ccccc2)cc1OC | – | > 100 | – | > 100 | – | > 100 µM | – | > 100 µM | – | 75.3 µM | – | 86.1 | – | > 100 | – | – | – | 41.3 µM | – | > 100 µM
COc1cccc(-c2cc(=O)c3cc(OC)ccc3[nH]2)c1 | 0.626 | 24.2 | – | – | 0.0194 | 0.405 µM and 0.0536 µM | 0.121 | 1.57 µM and 7.23 µM | 0.121 µM and 0.0373 µM | 0.392 µM and 0.175 µM | 0.0319 | > 100 | 0.401 | 29.7 | – | – | 0.118 | 2.59 µM and 0.443 µM | 0.0774 | 7.11 µM and 20.2 µM
COc1ccc(-c2cc(=O)c3ccc(C)nc3[nH]2)cc1 | – | > 100 | – | – | > 100 | > 100 µM | – | > 100 µM | – | > 100 µM | – | > 100 | – | > 100 | – | > 100 | – | > 100 µM | – | > 100 µM
Cc1cc(=O)oc2cc(OC(=O)N(C)C)c(Cl)cc12 | – | > 100 | – | – | – | > 100 µM | – | > 100 µM | – | > 100 µM | – | > 100 | – | 79 | – | > 100 | – | > 100 µM | – | > 100 µM

Source: PubChem BioAssay (NCI)
